Data: PubChem BioAssay (NCI)
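Growth conditions: 96-well plates. Treatment: test compound, 48 hours, 5 concentrations. Analysis: linear interpolation between bracketing concentrations; unreached endpoints set to highest concentration. TGI: total growth inhibition.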

Experiments:
Assay in all cases: NCI tumour cell line growth inhibition, 48 h
[1] = tested on: CAKI-1 renal
[2] = tested on: MCF7 breast
[3] = tested on: HOP-62 NSCLC
[4] = tested on: RXF 393 renal
[5] = tested on: HOP-18 NSCLC
[6] = tested on: OVCAR-3 ovarian
[7] = tested on: SW-620 colon
[8] = tested on: K-562 leukemia
[9] = tested on: P388 leukemia
[10] = tested on: NCI-H23 lung
[11] = tested on: SF-295 CNS
[12] = tested on: NCI-H522 lung
[13] = tested on: HCC-2998 colon
[14] = tested on: XF 498 CNS
[15] = tested on: SNB-78 CNS
[16] = tested on: SK-MEL-28 melanoma
[17] = tested on: MOLT-4 leukemia
[18] = tested on: DLD-1 colon
[19] = tested on: OVCAR-8 ovarian
[20] = tested on: HCT-116 colon
[21] = tested on: SNB-19 CNS
[22] = tested on: SF-268 CNS
[23] = tested on: HCT-15 colon
[24] = tested on: KM20L2 colon
[25] = tested on: UACC-62 melanoma
[26] = tested on: P388/ADR leukemia
[27] = tested on: SNB-75 CNS
[28] = tested on: LOX IMVI melanoma
[29] = tested on: SK-OV-3 ovarian
[30] = tested on: SK-MEL-5 melanoma
[31] = tested on: SN12C renal
[32] = tested on: HOP-92 NSCLC
[33] = tested on: SN12K1 renal
[34] = tested on: OVCAR-4 ovarian
[35] = tested on: SF-539 CNS
[36] = tested on: A498 renal
[37] = tested on: M19-MEL melanoma
[38] = tested on: CCRF-CEM leukemia
[39] = tested on: NCI-H226 lung
[40] = tested on: RPMI-8226 leukemia
[41] = tested on: KM12 colon
[42] = tested on: SK-MEL-2 melanoma
[43] = tested on: DMS 273 small cell lung
[44] = tested on: HL-60(TB) leukemia
[45] = tested on: MALME-3M melanoma
[46] = tested on: A549 NSCLC
[47] = tested on: IGROV1 ovarian
[48] = tested on: U251 CNS
[49] = tested on: HT29 colon
[50] = tested on: UACC-257 melanoma
[51] = tested on: OVCAR-5 ovarian
[52] = tested on: NCI/ADR-RES ovarian
[53] = tested on: COLO 205 colon
[54] = tested on: EKVX NSCLC
[55] = tested on: NCI-H460 lung
[56] = tested on: UO-31 renal
[57] = tested on: DMS 114 small cell lung
[58] = tested on: TK-10 renal
[59] = tested on: RXF-631 renal
[60] = tested on: SR leukemia
[61] = tested on: LXFL 529 NSCLC
[62] = tested on: 786-0 renal
[63] = tested on: M14 melanoma
[64] = tested on: ACHN renal

`COc1cc2c(cc1Oc1ccc(OC)c3c1CC1c4c(cc(OC)c(OC)c4-3)CCN1C)CC1c3c(cc(OC)c(OC)c3-2)CCN1C` (configuration not stated) gave a TGI [1] of 8.06 µM, a TGI [2] of 8.43 µM and a TGI [3] of 32.5 µM. For the same molecule, the TGI [4] was 3.81 µM, the TGI [5] was 23.8 µM and the TGI [6] was 14.9 µM. For the same molecule, the TGI [7] was 5.73 µM, the TGI [8] was 3.92 µM and the TGI [9] was 4.02 µM. The TGI [10] was 27.4 µM, the TGI [11] was 6.11 µM and the TGI [12] was 4.66 µM. The TGI [13] was 5.89 µM, the TGI [14] was 4.29 µM and the TGI [15] was 20.2 µM. For the same molecule, the TGI [16] was 3.44 µM, the TGI [17] was 4.41 µM and the TGI [18] was 9.17 µM. The TGI [19] was 16.3 µM, the TGI [20] was 4.49 µM and the TGI [21] was 14.5 µM. For the same molecule, the TGI [22] was 14.8 µM, the TGI [23] was 6.93 µM and the TGI [24] was 3.59 µM. It also gave a TGI [25] of 3.65 µM, a TGI [26] of 5.71 µM and a TGI [27] of 10.1 µM. For the same molecule, the TGI [28] was 2.48 µM, the TGI [29] was 31.9 µM and the TGI [30] was 2.92 µM. It also gave a TGI [31] of 19.3 µM, a TGI [32] of 12.4 µM and a TGI [33] of 2.54 µM. For the same molecule, the TGI [34] was 10.4 µM, the TGI [35] was 3.39 µM and the TGI [36] was 12.6 µM. It also gave a TGI [37] of 3.37 µM, a TGI [38] of 10.2 µM and a TGI [39] of 5.01 µM. The TGI [40] was 3.97 µM, the TGI [41] was 9.33 µM and the TGI [42] was 3.79 µM. For the same molecule, the TGI [43] was 7.06 µM, the TGI [44] was 2.72 µM and the TGI [45] was 3.38 µM. For the same molecule, the TGI [46] was 25.9 µM, the TGI [47] was 18.7 µM and the TGI [48] was 4.19 µM. The TGI [49] was 2.94 µM, the TGI [50] was 3.21 µM and the TGI [51] was 12.8 µM. It also gave a TGI [52] of 18.3 µM, a TGI [53] of 2.95 µM and a TGI [54] of 10.8 µM. For the same molecule, the TGI [55] was 3.88 µM and the TGI [56] was 17.7 µM.
For `COc1cc(C)c2c(=O)c3c(oc2c1)C(=O)c1c(O)c(OC)cc(O)c1C3=O`, the TGI [1] was 1.85 µM, the TGI [57] was 1.72 µM and the TGI [2] was 9.34 µM. For the same molecule, the TGI [3] was 3.98 µM, the TGI [4] was 2.71 µM and the TGI [5] was 3.9 µM. It also gave a TGI [6] of 2.4 µM, a TGI [7] of 10.7 µM and a TGI [8] of 4.39 µM. It also gave a TGI [9] of over 50 µM, a TGI [10] of 3.38 µM and a TGI [11] of 3.23 µM. The TGI [12] was 9.17 µM, the TGI [13] was 25 µM and the TGI [14] was 2.29 µM. It also gave a TGI [15] of 7.2 µM, a TGI [16] of 7.44 µM and a TGI [17] of 4.6 µM. The TGI [18] was 10.1 µM, the TGI [19] was 0.551 µM and the TGI [20] was 3.42 µM. For the same molecule, the TGI [21] was 7.89 µM, the TGI [22] was over 50 µM and the TGI [23] was 3.79 µM. For the same molecule, the TGI [24] was 19.9 µM, the TGI [25] was 4.61 µM and the TGI [26] was over 50 µM. It also gave a TGI [27] of 3.84 µM, a TGI [28] of 1.24 µM and a TGI [29] of 3.98 µM. For the same molecule, the TGI [30] was 2.33 µM, the TGI [31] was 5.3 µM and the TGI [32] was 1.26 µM. The TGI [33] was 2.69 µM, the TGI [34] was 4.28 µM and the TGI [35] was 4.19 µM. For the same molecule, the TGI [36] was 5.54 µM, the TGI [37] was 4.04 µM and the TGI [38] was 5.12 µM. For the same molecule, the TGI [39] was 0.524 µM, the TGI [40] was 4.48 µM and the TGI [41] was 11.9 µM. It also gave a TGI [42] of 1.88 µM, a TGI [43] of 1.8 µM and a TGI [44] of 2.57 µM. For the same molecule, the TGI [45] was 3.83 µM, the TGI [46] was 7.84 µM and the TGI [47] was 4.29 µM. The TGI [48] was 2.53 µM, the TGI [49] was over 50 µM and the TGI [50] was 3.1 µM. For the same molecule, the TGI [51] was 5.36 µM, the TGI [52] was 2.62 µM and the TGI [53] was over 43.4 µM. The TGI [54] was 3.25 µM, the TGI [55] was 3.97 µM and the TGI [56] was 3.62 µM.
With `O=C(/C=C/c1ccccc1O)c1cccnc1` the TGI [1] was over 100 µM, the TGI [3] was over 100 µM and the TGI [4] was over 100 µM. It also gave a TGI [5] of over 100 µM, a TGI [6] of over 100 µM and a TGI [7] of over 100 µM. The TGI [8] was over 100 µM, the TGI [58] was over 100 µM and the TGI [10] was over 100 µM. For the same molecule, the TGI [11] was over 100 µM, the TGI [12] was over 100 µM and the TGI [13] was over 100 µM. For the same molecule, the TGI [14] was over 100 µM, the TGI [15] was over 100 µM and the TGI [59] was over 100 µM. The TGI [60] was over 100 µM, the TGI [16] was over 100 µM and the TGI [17] was over 100 µM. It also gave a TGI [18] of over 100 µM, a TGI [61] of over 100 µM and a TGI [19] of over 100 µM. For the same molecule, the TGI [20] was over 100 µM, the TGI [21] was over 100 µM and the TGI [22] was over 100 µM. The TGI [24] was over 100 µM, the TGI [25] was over 100 µM and the TGI [62] was over 100 µM. For the same molecule, the TGI [27] was over 100 µM, the TGI [63] was over 100 µM and the TGI [28] was over 100 µM. For the same molecule, the TGI [29] was over 100 µM, the TGI [30] was over 100 µM and the TGI [31] was over 100 µM. For the same molecule, the TGI [34] was over 100 µM, the TGI [35] was over 100 µM and the TGI [36] was over 100 µM. The TGI [64] was over 100 µM, the TGI [37] was over 100 µM and the TGI [38] was over 100 µM. The TGI [39] was over 100 µM, the TGI [41] was over 100 µM and the TGI [42] was over 100 µM. It also gave a TGI [43] of over 100 µM, a TGI [44] of over 100 µM and a TGI [45] of over 100 µM. The TGI [46] was over 100 µM, the TGI [47] was over 100 µM and the TGI [48] was over 100 µM. It also gave a TGI [49] of over 100 µM, a TGI [50] of over 100 µM and a TGI [51] of over 100 µM. The TGI [54] was over 100 µM, the TGI [55] was over 100 µM and the TGI [56] was over 100 µM.
